Where two headings read alike, the source gives them in different places. Square brackets hold non-standard residues; d marks the D form. Peptide text beside a SMILES is read from it. ξ: configuration not given here. Ile(3ξ) = CCC(C)[C@H](N)C(=O)O; Thr(3ξ) = CC(O)[C@H](N)C(=O)O; Nle = CCCC[C@H](N)C(=O)O

The conditions of data set [1]: as compared with human GLP-2 and other GLP-2 analogues; cited from earlier work.
Data set [2] in a line: Solubility, pH and isoelectric point of the peptide. The format is physicochemical. The following applies: purified water.
Data set [3] is described as follows: Plasma concentration of apraglutide (LC-MS/MS) in Phase 2 metabolic balance trial (Example 6). The class given is in vivo, human. As to conditions: 5 mg SC once weekly, SBS patients. On the procedure:
Blood samples for analysis of the plasma concentration of apraglutide and plasma concentration of fasting L-citrulline, a marker of enterocyte mass, were collected at baseline, during first and second injection (pre-dose and at sequential timepoints), four days after first injection and at the end of treatment. Blood sampling for apraglutide pharmacokinetics was also performed after the fourth and last injection covering 96 hours. […] Blood samples for anti-apraglutide antibodies were collected at baseline, at the end of treatment and at the 4-6 weeks follow-up visit. All eight patients tested negative for anti-apraglutide antibodies at baseline.
Apraglutide and L-citrulline were quantified using a validated LC-MS-based method. For a apraglutide, the analytical method used solid-phase extraction purification of the intact apraglutide molecule and its internal standard. The compounds were identified and quantified using reversed-phase HPLC with MS/MS detection using an AB Sciex API 5000 quadrupole mass spectrometer. For samples below the limit of quantification of 5.00 ng/mL, compounds were identified and quantified using reversed-phase UHPLC with MS/MS detection using an AB Sciex API 5500 quadrupole mass spectrometer. For L-citrulline, the analytical method used protein precipitation extraction of L-citrulline and its internal standard. The compounds were identified and quantified using Hilic HPLC with MS/MS detection using an AB Sciex API 5000 quadrupole mass spectrometer.

In general, half-life refers to how long it takes for the measured level to halve. The solubility is the concentration that dissolves in the medium under given conditions. Low values mean little dissolved substance, high ones much dissolved substance. As for `CCCC[C@H](NC(=O)[C@H](CCC(=O)O)NC(=O)[C@H](CC(=O)O)NC(=O)[C@H](CO)NC(=O)[C@H](Cc1ccccc1)NC(=O)[C@H](CO)NC(=O)CNC(=O)[C@H](CC(=O)O)NC(=O)CNC(=O)[C@@H](N)Cc1c[nH]cn1)C(=O)N[C@H](Cc1ccccc1)C(=O)N[C@H](C(=O)N[C@H](C(=O)N[C@@H](CC(C)C)C(=O)N[C@@H](CC(=O)O)C(=O)N[C@@H](CC(C)C)C(=O)N[C@@H](CC(C)C)C(=O)N[C@@H](C)C(=O)N[C@@H](C)C(=O)N[C@@H](CCCNC(=N)N)C(=O)N[C@@H](CC(=O)O)C(=O)N[C@@H](Cc1ccccc1)C(=O)N[C@H](C(=O)N[C@@H](CC(N)=O)C(=O)N[C@@H](Cc1c[nH]c2ccccc12)C(=O)N[C@@H](CC(C)C)C(=O)N[C@H](C(=O)N[C@@H](CCC(N)=O)C(=O)N[C@H](C(=O)N[C@@H](CCCCN)C(=O)N[C@H](C(=O)N[C@H](C(=O)N[C@@H](CC(=O)O)C(N)=O)C(C)O)C(C)CC)C(C)O)C(C)CC)C(C)CC)C(C)CC)C(C)O` (stereo partly drawn) [apraglutide, L-histidyl-glycyl-L-aspartyl-glycyl-L-seryl-L-phenylalanyl-L-seryl-L-aspartyl-L-glutamyl-L-norleucyl-D-phenylalanyl-L-threonyl-Lisoleucyl-L-leucyl-L-aspartyl-L-leucyl-L-leucyl-L-alanyl-L-alanyl-L-arginyl-L-aspartyl-L-phenylalanyl-L-isoleucyl-L-asparaginyl-Ltryptophanyl-L-leucyl-L-isoleucyl-L-glutaminyl-L-threonyl-L-lysyl-L-isoleucyl-L-threonyl-Laspartic acid amide] (H-HGDGSFSDE[Nle][dF][Thr(3ξ)][Ile(3ξ)]LDLLAARDF[Ile(3ξ)]NWL[Ile(3ξ)]Q[Thr(3ξ)]K[Ile(3ξ)][Thr(3ξ)]D-NH2), the half-life result is “at least 30 hours” in data set [1] and 27 h in data set [3] (human, plasma, read-out: Mean elimination half-life (converted)). Besides, in data set [2], the solubility was above 100 mg/mL. Also, the Mean clearance in data set [3] was found to be 0.9 L/h. Further, the Cmax in data set [3] (human, plasma, read-out: Maximum mean plasma concentration) worked out at 118 ng/mL. Also, the Tmax in data set [3] (human, plasma, read-out: Mean time to maximum concentration) was 29.5 h.

The values are drawn from patent US11766470B2, “Manufacture, formulation and dosing of apraglutide” (VectivBio AG, priority 2020, dated 2023).
